# Reference: patent US20110229505A1, “Methods for the diagnosis and treatment of cancer based on AVL9” (IMMATICS BIOTECHNOLOGIES GMBH, priority 2010, published 2011)
# Test system: CD8+ T cells of healthy HLA-A*24 donors
# Test: In vitro immunogenicity for MHC class I presented peptides (aAPC priming, A*2402 multimer staining)
# Format: cell-based, human
# Settings: in vitro priming of CD8+ T cells with peptide-loaded HLA-A*2402/anti-CD28 beads, three stimulation cycles
# Procedure: CD8 T cells were either directly enriched from the leukapheresis product or PBMCs (peripheral blood mononuclear cells) were isolated first by using standard gradient separation medium (PAA, Cölbe, Germany). Isolated CD8 lymphocytes or PBMCs were incubated until use in T-cell medium (TCM) consisting of RPMI-Glutamax (Invitrogen, Karlsruhe, Germany) supplemented with 10% heat inactivated human AB serum (PAN-Biotech, Aidenbach, Germany), 100 U/ml Penicillin/100 μg/ml Streptomycin (Cambrex, Cologne, Germany), 1 mM sodium pyruvate (CC Pro, Oberdorla, Germany), 20 μg/ml Gentamycin (Cambrex). […] Isolation of CD8+ lymphocytes was performed by positive selection using CD8 MicroBeads (Miltenyi Biotec, Bergisch-Gladbach, Germany).
# 800.000 beads/200 μl were coated in 96-well plates in the presence of 600 ng biotin anti-CD28 plus 200 ng relevant biotin-pMHC (high density beads). Stimulations were initiated in 96-well plates by co-incubating 1×10^6 CD8+ T cells with 2×10^5 washed coated beads in 200 μl TCM supplemented with 5 ng/ml IL-12 (PromoCell) for 3-4 days at 37° C. […] Peptide specific cells were calculated as percentage of total CD8+ cells. […] In vitro priming of specific multimer+ CD8+ lymphocytes was detected by appropriate gating and by comparing to negative control stimulations.
substance,measurement,setting,value
1 (FYISPVNKL; listed as Homo sapiens) [compound 1],Positive donors/donors tested [%],among evaluable donors,100%
same,Positive wells/wells tested [%],among evaluable wells,50%
